# Data taken from patent US20100028259A1, “USE OF ORGANIC CATION TRANSPORTERS FOR CANCER DIAGNOSIS AND THERAPY” (The Regents of the University of California, priority 2006, published 2010).
# Tested on: HEK-MOCK cells
# Experiment: Cellular accumulation of platinum in HEK-MOCK cells (ICP-MS)
# Format: in vitro ADME, human
# Settings: cimetidine 1.5 mM
# Experimental: For the inhibitor studies, the incubation medium also contained disopyramide (150 μM). […] For the inhibitor studies, the incubation medium also contained cimetidine (1.5 mM). […] After drug exposure, the cells were washed with ice-cold PBS three times and harvested by scraping and centrifugation. The cell-associated platinum was determined by ICP-MS and normalized for protein content. Data are expressed as mean±SD from a single experiment performed in triplicate. Experiments were replicated for OCT1 and OCT2, and similar results were obtained.
# The cellular accumulation of platinum was determined as described in Holzer et al., Mol. Pharmacol., 66:817-823 (2004) with some modifications. Briefly, the cells were grown in 100 mm×20 mm dishes in the culture medium without any antibiotics to over 90% confluence. For HEK 293 cells, poly-D-lysine coated dishes were used. For platinum accumulation, the cells were incubated in the culture medium containing the indicated concentrations of the platinum compounds at 37° C. in 5% CO2 for 2 hr unless specified. […] The platinum content was measured by inductively plasma coupled mass spectrometry (ICP-MS) in the Analytical Facility at the University of California at Santa Cruz (Santa Cruz, Calif.). […]
smiles,measurement,value
O=C1[O][Pt]2([NH][C@@H]3CCCC[C@H]3[NH]2)[O]C1=O [oxaliplatin],effect of cimetidine on platinum accumulation / cellular uptake in HEK-MOCK,significant decrease
